According to patent US6689767B2, “Triterpenes having antibacterial activity” (Regents of the University of Minnesota, priority 2000, dated 2004):
Read-outs that look alike come from different tables or passages of the source.

Columns and labels:
Assay type in all cases: cell-based
Escherichia coli = test: Kirby-Bauer disk diffusion growth inhibition, Escherichia coli; settings: for zone of inhibition at 0.125 µg/mL: read-out: Zone of inhibition Escherichia coli; for zone of inhibition at 1000 µg/mL: 1 mg/ml in DMSO
Experimental: (§1) The compounds disclosed herein were tested for growth inhibition against four strains of bacteria: Escherichia coli, Staphylococcus aureus, methicillin-resistant Staphylococcus aureus, and Bacillus subtilis. […] They represent […]. E. coli is a gram-negative, non-spore forming, rod-shaped, opportunistic pathogen that resides in the human digestive tract. S. aureus is a gram positive coccus, is usually found morphologically as a […], and is an opportunistic human pathogen, often residing on or in the skin. B. subtilis is a gram positive spore-forming rod. Its native environment is the soil. The chemicals were tested for growth-inhibition of the bacteria by the Kirby-Bauer method. See, e.g., Microbiology, third edition; Lansing M. Prescott, John P. Harley, and Donald A. Klein; Wm. C. Brown Publishers.
(§2) Mueller-Hinton agar (Difco Lab, Michigan) was prepared according to the manufacturer's directions, and 20 ml was dispensed in each sterile petri dish. Sterile nutrient broth (Difco Lab, Michigan) was also prepared according to the manufacturer's directions.
(§3) Bacteria were grown in liquid nutrient broth for 18 hours at 37° C. until they were turbid.
(§4) An aliquot of 0.5 ml of cultured bacteria was aseptically transferred to the surface of a Mueller-Hinton agar plat, and spread using a cotton-tipped swab. Plates were then allowed to dry for 5 minutes. Then a 10 mm diameter filter paper disk impregnated with the test chemical was placed with sterile forceps on the plate. The disks were impregnated with 100 μl of a solution of the test compound in DMSO or in water, at the indicated concentrations in Table 1.
(§5) The zones of inhibition were measured after 18 hours growth at 37° C. Tests were done in triplicate.
(§6) Additional compounds were tested for activity against E. coli, laboratory strain S. aureus (not methicillin resistant), and B. subtilis. The compounds were tested by the disk diffusion method, as in Example 1, with application of a 10 mg/mil solution of the test compound in DMSO.

Staphylococcus aureus = test: Kirby-Bauer disk diffusion growth inhibition, Staphylococcus aureus; settings: for zone of inhibition at 0.125 µg/mL: read-out: Zone of inhibition Staphylococcus aureus; for zone of inhibition at 1000 µg/mL: 1 mg/ml in DMSO
Experimental: as §1, §2, §3, §4, §5, §6
Derivatives of lupeol were tested for inhibition of bacterial growth using the Kirby-Bauer disk diffusion method and by growth in liquid culture. For the disk diffusion method, compounds were dissolved in DMSO and 100 μl was added to the 10 mm filter paper disk. The amount of compound applied to the disk varied. The amount applied for each compound was as follows: lupeol (50 μg), lupeol-3-maleate (15 μg), lupeol-3-thiodiglycolate (15 μg), lupeol-3-dimethyl succinate (60 μg), lupeol-3-phosphate (30 μg), lupenone (50 μg), lupenon-3-oxime (50 μg), lupeol-3-amine (50 μg), lupenon-1,2-ene-2-ol (50 μg). In liquid culture, the compounds were dissolved in DMSO at 1 mg/ml and then 100 μl was added to 7 ml of sterile broth, along with a 1/200 dilution of freshly grown bacterial liquid culture.

Bacillus subtilis = test: Kirby-Bauer disk diffusion growth inhibition, Bacillus subtilis; settings: for zone of inhibition at 0.125 µg/mL: read-out: Zone of inhibition Bacillus subtilis; for zone of inhibition at 1000 µg/mL: 1 mg/ml in DMSO
Experimental: as §1, §2, §3, §4, §5, §6

[1] = Escherichia coli, 125 ng/ml in water, 100 μl on 10 mm disk, 18 hours 37° C.
[2] = Staphylococcus aureus, 125 ng/ml in water, 100 μl on 10 mm disk, 18 hours 37° C.
[3] = Bacillus subtilis, 125 ng/ml in water, 100 μl on 10 mm disk, 18 hours 37° C.
[4] = 125 ng/ml in water, 100 μl on 10 mm disk, 18 hours 37° C.
[5] = Escherichia coli, 100 μl on 10 mm disk, 18 hours 37° C.
[6] = Staphylococcus aureus, 100 μl on 10 mm disk, 18 hours 37° C.
[7] = Bacillus subtilis, 100 μl on 10 mm disk, 18 hours 37° C.
[8] = 5 mg/ml in DMSO, 100 μl on 10 mm disk, 18 hours 37° C.
[9] = 10 mg/ml in DMSO, 100 μl on 10 mm disk, 18 hours 37° C.

CC1(C)CCC23CC[C@@]4(C)C(CCC5[C@@]6(C)C=C(OC(=O)CCC(=O)O)C(=O)C(C)(C)C6CC[C@]54C)C2C1OC3 (stereo partly drawn) [3-Allobetulon-1-ene-2-succinate, 3-Allobetulon-1-en-2succinate]
zone of inhibition at 0.125 µg/mL (Escherichia coli; [1]): 0 mm | zone of inhibition at 0.125 µg/mL (Staphylococcus aureus; [2]): 0 mm | zone of inhibition at 0.125 µg/mL (Bacillus subtilis; [3]): 0 mm

CC(=O)OC1CCC2(C)C(CCC3(C)C2CCC2C4C5OC(=O)C4(CCC5(C)C)CCC23C)C1(C)C (stereo not drawn) [3β-Acetoxy-19αH-19,28 lactone oleanan]
Zone of inhibition Escherichia coli (Escherichia coli; [4]): 0 mm | Zone of inhibition Staphylococcus aureus (Staphylococcus aureus; [4]): 0 mm | Zone of inhibition Bacillus subtilis (Bacillus subtilis; [4]): 0 mm

CC1(C)CCC23CCC4(C)C(CCC5C6(C)CCC(OC(=O)CCCC(=O)O)C(C)(C)C6CCC54C)C2C1OC3 (stereo not drawn) [Allobetulin 3-glutarate, Allobetulin-3-glutarate]
zone of inhibition at 0.125 µg/mL (Escherichia coli; [1]): 0 mm | zone of inhibition at 1000 µg/mL (Escherichia coli; [5]): 0 mm | zone of inhibition at 0.125 µg/mL (Staphylococcus aureus; [2]): 0 mm | zone of inhibition at 1000 µg/mL (Staphylococcus aureus; [6]): 0 mm | zone of inhibition at 0.125 µg/mL (Bacillus subtilis; [3]): 0 mm | zone of inhibition at 1000 µg/mL (Bacillus subtilis; [7]): 0 mm

CC1(C)CCC23CC[C@@]4(C)C(CCC5[C@@]6(C)CCC(OP(=O)(O)O)C(C)(C)C6CC[C@]54C)C2C1OC3 (stereo partly drawn) [Allobetulin 3-phosphate, allobetulin-3-phosphate]
zone of inhibition at 0.125 µg/mL (Escherichia coli; [1]): 0 mm | zone of inhibition at 0.125 µg/mL (Staphylococcus aureus; [2]): 0 mm | zone of inhibition at 0.125 µg/mL (Bacillus subtilis; [3]): 0 mm

CC1(C)CCC23CCC4(C)C(CCC5C6(C)CCC(OC(=O)CCC(=O)O)C(C)(C)C6CCC54C)C2C1OC3 (stereo not drawn) [Allobetulin 3-succinate, Allobetulin-3-succinate]
Zone of inhibition Escherichia coli (Escherichia coli; [8]): 0 mm | Zone of inhibition Staphylococcus aureus (Staphylococcus aureus; [8]): 0 mm | Zone of inhibition Bacillus subtilis (Bacillus subtilis; [8]): 0 mm

CC1(C)CCC23CC[C@@]4(C)C(CCC5[C@@]6(C)CCC(OP(=O)(O)O)C(C)(C)C6CC[C@]54C)C2C1OC3=O (stereo partly drawn) [Allobetulin lactone phosphate, allobetulin lactone-3-phosphate]
Zone of inhibition Escherichia coli (Escherichia coli; [4]): 0 mm | Zone of inhibition Staphylococcus aureus (Staphylococcus aureus; [4]): 0 mm | Zone of inhibition Bacillus subtilis (Bacillus subtilis; [4]): 0 mm

CC1(C)CCC23CC[C@@]4(C)C(CCC5[C@@]6(C)CC[C@H](O)C(C)(C)C6CC[C@]54C)C2C1OC3=O (stereo partly drawn) [Allobetulin lactone]
zone of inhibition at 0.125 µg/mL (Escherichia coli; Escherichia coli, 18 h): 0 mm | zone of inhibition at 0.125 µg/mL (Staphylococcus aureus; Staphylococcus aureus, 18 h): 0 mm | zone of inhibition at 0.125 µg/mL (Bacillus subtilis; Bacillus subtilis, 18 h): 0 mm

CC1(C)CCC23CC[C@@]4(C)C(CCC5[C@@]6(C)CC[C@H](O)C(C)(C)C6CC[C@]54C)C2C1OC3 (stereo partly drawn) [Allobetulin]
zone of inhibition at 1000 µg/mL (Escherichia coli; [5]): 0 mm | zone of inhibition at 1000 µg/mL (Staphylococcus aureus; [6]): 0 mm | zone of inhibition at 1000 µg/mL (Bacillus subtilis; [7]): 0 mm

CC1(C)CCC23CC[C@@]4(C)C(CCC5[C@@]6(C)CCC(=O)C(C)(C)C6CC[C@]54C)C2C1OC3 (stereo partly drawn) [Allobetulon]
zone of inhibition at 0.125 µg/mL (Escherichia coli; [1]): 0 mm | zone of inhibition at 0.125 µg/mL (Staphylococcus aureus; [2]): 0 mm | zone of inhibition at 0.125 µg/mL (Bacillus subtilis; [3]): 0 mm

C=C(C)C1CCC2(COC(=O)CCCC(=O)O)CCC3(C)C(CCC4C5(C)CCC(O)C(C)(C)C5CCC43C)C12 (stereo not drawn) [Betulin 28-glutarate, Betulin-28-glutarate]
zone of inhibition at 0.125 µg/mL (Escherichia coli; [1]): 0 mm | zone of inhibition at 0.125 µg/mL (Staphylococcus aureus; [2]): 0 mm | zone of inhibition at 0.125 µg/mL (Bacillus subtilis; [3]): 0 mm

C=C(C)[C@@H]1CC[C@]2(COC(=O)/C=C\C(=O)O)CC[C@]3(C)[C@H](CC[C@@H]4[C@@]5(C)CC[C@H](O)C(C)(C)[C@@H]5CC[C@]43C)[C@@H]12 [Betulin 28-maleate, Betulin-28-maleate]
Zone of inhibition Escherichia coli (Escherichia coli; [9]): 0 mm | Zone of inhibition Staphylococcus aureus (Staphylococcus aureus; [9]): 0 mm | Zone of inhibition Bacillus subtilis (Bacillus subtilis; [9]): 0 mm

C=C(C)C1CCC2(COC(=O)CCC(=O)O)CC[C@@]3(C)C(CCC4[C@@]5(C)CCC(O)C(C)(C)C5CC[C@]43C)C12 (stereo partly drawn) [Betulin 28-succinate, Betulin-28-succinate]
zone of inhibition at 1000 µg/mL (Escherichia coli; [5]): 0 mm | zone of inhibition at 1000 µg/mL (Staphylococcus aureus; [6]): 0 mm | zone of inhibition at 1000 µg/mL (Bacillus subtilis; [7]): 0 mm

C=C(C)C1CCC2(COC(=O)[C@@H](N)CCC(=O)OCc3ccccc3)CCC3(C)C(CCC4C5(C)CCC(OC(=O)[C@@H](N)CCC(=O)OCc6ccccc6)C(C)(C)C5CCC43C)C12 (stereo partly drawn) [Betulin Di-(L-glutamic acid γ-benzyl ester) ester]
Zone of inhibition Escherichia coli (Escherichia coli; [4]): 0 mm | Zone of inhibition Staphylococcus aureus (Staphylococcus aureus; [4]): 0 mm | Zone of inhibition Bacillus subtilis (Bacillus subtilis; [4]): 0 mm

C=C(C)[C@@H]1CC[C@]2(COC(=O)[C@@H]3CCCN3)CC[C@]3(C)[C@H](CC[C@@H]4[C@@]5(C)CC[C@H](OC(=O)[C@@H]6CCCN6)C(C)(C)[C@@H]5CC[C@]43C)[C@@H]12 [Betulin Di-(L-proline) ester]
Zone of inhibition Escherichia coli (Escherichia coli; [4]): 0 mm | Zone of inhibition Staphylococcus aureus (Staphylococcus aureus; [4]): 0 mm | Zone of inhibition Bacillus subtilis (Bacillus subtilis; [4]): 0 mm

C=C(C)C1CCC2(COC(=O)C(N)Cc3ccccc3)CCC3(C)C(CCC4C5(C)CCC(OC(=O)C(N)Cc6ccccc6)C(C)(C)C5CCC43C)C12 (stereo not drawn) [Betulin-3,28-diphenylalanine ester]
Zone of inhibition Escherichia coli (Escherichia coli; [4]): 0 mm | Zone of inhibition Staphylococcus aureus (Staphylococcus aureus; [4]): 0 mm | Zone of inhibition Bacillus subtilis (Bacillus subtilis; [4]): 0 mm

C=C(C)[C@@H]1CC[C@]2(CO)CC[C@]3(C)[C@H](CC[C@@H]4[C@@]5(C)CC[C@H](O)C(C)(C)[C@@H]5CC[C@]43C)[C@@H]12 [Betulin]
zone of inhibition at 1000 µg/mL (Escherichia coli; [5]): 0 mm | zone of inhibition at 1000 µg/mL (Staphylococcus aureus; [6]): 0 mm | zone of inhibition at 1000 µg/mL (Bacillus subtilis; [7]): 0 mm

C=C(C)C1CCC2(C)CCC3(C)C(CCC4C5(C)CCC(OC(=O)c6ccccc6C(=O)O)C(C)(C)C5CCC43C)C12 (stereo not drawn) [Lupeol-3-phthalate]
zone of inhibition at 0.125 µg/mL (Escherichia coli; [1]): 0 mm | zone of inhibition at 0.125 µg/mL (Staphylococcus aureus; [2]): 0 mm | zone of inhibition at 0.125 µg/mL (Bacillus subtilis; [3]): 0 mm

C=C(C)C1CCC2(C)CCC3(C)C(CCC4C5(C)CCC(OC(=O)CCC(=O)O)C(C)(C)C5CCC43C)C12 (stereo not drawn) [Lupeol-3-succinate]
zone of inhibition at 0.125 µg/mL (Escherichia coli; [1]): 0 mm | zone of inhibition at 0.125 µg/mL (Staphylococcus aureus; [2]): 0 mm | zone of inhibition at 0.125 µg/mL (Bacillus subtilis; [3]): 0 mm

CC1(C)S[C@@H]2[C@H](NC(=O)Cc3ccccc3)C(=O)N2[C@H]1C(=O)O [Pencillin G, reference compound]
Zone of inhibition Escherichia coli (Escherichia coli; control antibiotic, 10 units): 0 mm | Zone of inhibition Staphylococcus aureus (Staphylococcus aureus; control antibiotic, 10 units): 40.0 mm | Zone of inhibition Bacillus subtilis (Bacillus subtilis; control antibiotic, 10 units): 25.0 mm

CN(C)[C@@H]1C(O)=C(C(N)=O)C(=O)[C@@]2(O)C(O)=C3C(=O)c4c(O)cccc4[C@@](C)(O)[C@H]3C[C@@H]12 [Tetracycline, reference compound]
zone of inhibition at 30 µg/disc (Escherichia coli; Escherichia coli, control antibiotic, 30 mcg): 19 mm | zone of inhibition at 30 µg/disc (Staphylococcus aureus; Staphylococcus aureus, control antibiotic, 30 mcg): 26 mm | zone of inhibition at 30 µg/disc (Bacillus subtilis; Bacillus subtilis, control antibiotic, 30 mcg): 31 mm

C[C@H]1[C@H](C)CC[C@]2(C(=O)O)CC[C@]3(C)C(=CC[C@@H]4[C@@]5(C)CC[C@H](O)C(C)(C)[C@@H]5CC[C@]43C)[C@H]12 [Ursolic Acid]
zone of inhibition at 0.125 µg/mL (Escherichia coli; [1]): 0 mm | zone of inhibition at 0.125 µg/mL (Staphylococcus aureus; [2]): 0 mm | zone of inhibition at 0.125 µg/mL (Bacillus subtilis; [3]): 0 mm

Allobetulin 2-alanine ester
Zone of inhibition Escherichia coli (Escherichia coli; [4]): 0 mm | Zone of inhibition Staphylococcus aureus (Staphylococcus aureus; [4]): 0 mm | Zone of inhibition Bacillus subtilis (Bacillus subtilis; [4]): 0 mm
